Results reported in patent publication US20110160238A1, “OCTAHYDROQUINOLIZINES FOR ANTIDIABETIC TREATMENT” (55PHARMA DRUG DISCOVERY & DEVELOPMENT AG, priority 2008, published 2011).

System: Male C57BL/6 mice
Assay: oral glucose tolerance test in mice
Format: in vivo
Conditions: oral glucose 3 g/kg at 0 min, versus vehicle
Experimental: All animal experiments described below and listed in Table 1 were performed in accordance to Austrian law and the principles of good laboratory animal care. Data shown in Table 1 are obtained using commercially available male mice purchased, e.g. from the breeding facilities of Charles River Lab. (USA). Male C57BL/6 mice were used at the age of 7-30 weeks and had free access to a standard laboratory chow diet (kg/kg: <10% crude fat) and water except for defined fasting periods before experimentation. They were maintained at room temperature and a 12 h/12 h light-dark cycle.
The antidiabetic activities of the products listed in Table 1 were evaluated in oral glucose tolerance tests in mice, in analogy to the procedure known to the general physician. Mice were fasted for 8-12 hours prior to oral glucose tolerance testing. For biological testing, the products listed in Table 1 were dissolved or suspended in 0.5% carboxymethylcellulose containing 1-2% acetic acid. A control group receiving no test product was examined in parallel in each test run. The control group received the same amount of a 0.5% carboxymethylcellulose solution containing 1-2% acetic acid (vehicle). Administration of products listed in Table 1 or vehicle at T=−45 min was followed after 45 min by oral administration via gavage of a glucose solution (3 g/kg) at T=0 min. Blood was collected via puncture of the tip of the tail immediately before administration of products listed in Table 1 or vehicle, immediately before administration of glucose, and at T=30 min and/or T=90 and/or T=150 as the case may be. Blood glucose was determined using portable glucometers as commonly used in human diabetes.
The increment in blood glucose at T=min over levels measured at T=0 min was calculated for each animal. Mean values of the increment for treatment group and vehicle group were compared (typical group size n=6-10 mice). Percent reduction induced by products listed in Table 1 versus vehicle was the readout parameter for glucose-lowering activity. As listed in Table 1, an effect of 1 means a reduction of more than 15% of incremental blood glucose at the given time point T=min versus vehicle group.
Antidiabetic effects of products are listed in Table 1 as evaluated in a glucose tolerance test in mice.

[1] = product dose 45 mg/kg per os at -45 min, glucose measurement at 30 min
[2] = product dose 90 mg/kg per os at -45 min, glucose measurement at 30 min

Compound | Antidiabetic activity [1] | Antidiabetic activity [2] | other results
CC1(c2ccc(F)cc2)CCC2(C)CC3(CCC(=O)O3)CCN2C1 (stereo not shown) [Product 6b, 7′-(4-fluorophenyl)-7′,9a′-dimethyldecahydro-5H-spiro[furan-2,2′-quinolizine]-5-one] | 1 (an effect of 1 means a reduction of more than 15% of incremental blood glucose at the given time point T=min versus vehicle group) | – | –
CC1(c2ccccc2)CCC2(C)CC3(CCCO3)CCN2C1 (stereo not shown) [Product 5a, 7′,9a′-dimethyl-7′-phenyldecahydro-3H-spiro[furan-2,2′-quinolizine]] | – | – | Antidiabetic activity (product dose 22.5 mg/kg per os at -45 min, glucose measurement at 30 min): 1 (an effect of 1 means a reduction of more than 15% of incremental blood glucose at the given time point T=min versus vehicle group); Antidiabetic activity (product dose 90 mg/kg per os at -45 min, glucose measurement at 90 min): 1 (an effect of 1 means a reduction of more than 15% of incremental blood glucose at the given time point T=min versus vehicle group); Antidiabetic activity (product dose 90 mg/kg per os at -45 min, glucose measurement at 150 min): 1 (an effect of 1 means a reduction of more than 15% of incremental blood glucose at the given time point T=min versus vehicle group)
CC1(c2ccc(F)cc2)CCC2(C)CC(=O)CCN2C1 (stereo not shown) [Product 3b, 7-(4-fluorophenyl)-7,9a-dimethyloctahydro-2H-quinolizin-2-one] | – | 1 (an effect of 1 means a reduction of more than 15% of incremental blood glucose at the given time point T=min versus vehicle group) | –
CC1(c2ccc(F)cc2)CCC2(C)CC3(CCCO3)CCN2C1 (stereo not shown) [Product 5b, 7′-(4-fluorophenyl)-7′,9a′-dimethyldecahydro-3H-spiro[furan-2,2′-quinolizine]] | 1 (an effect of 1 means a reduction of more than 15% of incremental blood glucose at the given time point T=min versus vehicle group) | – | –
CC1(c2ccccc2)CCC2(C)CC(=O)CCN2C1 (stereo not shown) [Product 3a, 7,9a-dimethyl-7-phenyloctahydro-2H-quinolizin-2-one] | – | 1 (an effect of 1 means a reduction of more than 15% of incremental blood glucose at the given time point T=min versus vehicle group) | –
